This is an account of results in paper PMC8983459 (Molecular cancer therapeutics, 2022).

The test system of one experiment is 22Rv1 tumors. As to conditions: cited from earlier work.
A further experiment has as its system AR nuclear localization. The following applies: cited from earlier work.
In a further experiment the test system is AR. As to the kind of experiment: Western blot with nucleocytoplasmic fractionation, AR level. As to conditions: 10 nM, 20 h, C4-2, LN95, and 22Rv1. The experiment is classed as cell-based, human.
Experiment [1] deals with PSA expression in C4-2 cells (AR activity). Kind of experiment: PSA ELISA of conditioned medium, C4-2 cells. The experiment is classed as cell-based, human. The following applies: C4-2, 48 h. In general terms: In an ELISA, binding on a coated surface is turned into a signal by an enzyme label.
The subject of the next experiment is 22Rv1 xenograft tumor. Kind of experiment: 22Rv1 xenograft tumor study in castrated mice. The following applies: 10 mg/kg i.p. every day; (+)-JJ-74-138 compared to enzalutamide p < 0.05.
Experiment [2] concerns PSA expression in 22Rv1 cells (AR activity). As to the kind of experiment: PSA ELISA of conditioned medium, 22Rv1 cells. The experiment is classed as cell-based, human.
In experiment [3] the test system is PSA expression in LN95 cells (AR activity). Kind of experiment: PSA ELISA of conditioned medium, LN95 cells. The experiment is classed as cell-based, human.
The test system of another experiment is DU145 cells. As to the kind of experiment: Cell proliferation assay, DU145. The experiment is classed as cell-based, human. As to conditions: DU145, 10 μM, repeat experiment (Supplemental Fig. 2).
The next experiment deals with PC-3 cells. Kind of experiment: Cell proliferation assay, PC-3. The experiment is classed as cell-based, human. The following applies: PC-3, 10 μM, repeat experiment (Supplemental Fig. 2).
The mark [4] stands for this setting: DHT 0-1000 nM with 10 μM (+)-JJ-74-138 or 1 or 10 μM enzalutamide.
Where [5] appears, read: 22Rv1, 48 h, DHT 0-1000 nM with 10 μM compound.
[6] abbreviates: LN95, 48 h, DHT 0-1000 nM with 10 μM compound.

As for `CC(C)(c1ccc(OCC(O)CO)cc1)c1ccc(OCC(O)CCl)cc1` (stereo not drawn) [EPI-001], in the experiment with 22Rv1 tumors, the “sensitivity of 22Rv1 tumors” value is given as “resistant”.

For `O=C(CSCc1cnoc1)N1CCN(c2ccccc2)CC1` [IMTPPE, 2-[(isoxazol-4-ylmethyl)thio]-1-(4-phenylpiperazin-1-yl)ethanone], in the experiment on AR nuclear localization, the “androgen-independent AR nuclear localization” value was “inhibited androgen-independent AR nuclear localization”.

Take `C[C@]1(O)CC[C@H]2[C@@H]3CCC4=CC(=O)CCC4=C3C=C[C@@]21C` [R1881]: the “amount of total AR and nuclear AR level” value in the experiment with AR was “increased the amount of total AR, particularly the nuclear AR level”.

For orientation: inhibition means the change of the read-out against control, counted positive when it falls. Turning to `CNC(=O)c1ccc(N2C(=S)N(c3ccc(C#N)c(C(F)(F)F)c3)C(=O)C2(C)C)cc1F` [enzalutamide], the “increase of EC50 of DHT induction of PSA” value in [1] (setting [4]), in experiment [2] (setting [5]) and in [3] (setting [6]) was ~ 10 fold in each case. Moreover, the “maximal PSA induction by high DHT dosages” value in [1] (setting [4]), in [2] (setting [5]) and in experiment [3] (setting [6]) was “alleviated by high doses of DHT” in each case. The inhibition at 10 µM in experiment [1] (Homo sapiens, read-out: inhibition of PSA levels) was about 70%; in experiment [3] (Homo sapiens, 48 h, read-out: inhibition of PSA levels), about 20%. Besides, the “survival (Kaplan-Meier, ad hoc analysis)” value with 22Rv1 xenograft tumor was “did not differ from the vehicle control”. Further, the “DHT-stimulated PSA expression” value in [2] (22Rv1, 10 μM, with DHT (Fig. 3A)) is listed as “effectively inhibit DHT-stimulated PSA expression”; in experiment [3] (LN95, 10 μM, with DHT (Fig. 3A)), “effectively inhibit DHT-stimulated PSA expression”. In addition, the cell growth entry in the experiment with DU145 cells and in the experiment on PC-3 cells was “minimal inhibitory effect” each time.

`CC/C(=C(\c1ccccc1)c1ccc(OCCN(C)C)cc1)c1ccccc1` [tamoxifen]: the PSA expression result in experiment [3] (LN95 cells (Supplemental Fig. 3)) is recorded as “did not affect PSA expression”.
